This assay has as its system cancer cells. Kind of assay: List of active compounds: types of cancers and precancers active against. It is filed as cell-based. An excerpt:
As discussed, the adamantyl retinoid derivatives according to the invention which induce apoptosis are useful for treating many different types of cancers.

SMILES strings stand for the structures. Entries after “also recorded” stand apart in the source; their conditions may differ.

Turning to `CC(=O)OCc1ccc(-c2ccc3cc(C(=O)O)ccc3c2)cc1C12CC3CC(CC(C3)C1)C2` [Compound 5, 6-[3-(1-adamantyl)-4-acetoxymethylphenyl]-2-naphthoic acid], the “Types of Cancers and Precancers Active Against” value (shortened to “Types”) was “head and neck, leukemia, lung,; also recorded: lymphoma, myeloma, pancre-; also recorded: atic, skin”. Regarding `COc1ccc(-c2ccc3cc(C(=O)N4CCNCC4)ccc3c2)cc1C12CC3CC(CC(C3)C1)C2` [Compound 7, N-{6-[3-(1-adamantyl)-4-methoxyphenyl]-2-naphthalenecarboxoyl}piperizide], the “Types” value was “brain, breast, head and neck,; also recorded: myeloma, prostate, skin”. As to `COc1ccc(C(=O)C#Cc2ccc(C(=O)O)cc2)cc1C12CC3CC(CC(C3)C1)C2` [Compound 8, 4-{3-oxo-3-[3-(1-adamantyl)-4-methoxyphenyl]-1-propynyl}benzoic acid], the “Types” value was “brain, breast, leukemia, lung,; also recorded: lymphoma, skin, liver”. With `COc1cc(NC(=O)c2ccc(OC)c(C34CC5CC(CC(C5)C3)C4)c2)ccc1C(=O)O` [Compound 9, 4-[N-(3-(1-adamantyl)-4-methoxybenzoyl)amido]2-methoxybenzoic acid], the “Types” value is “head and neck, kidney, ovarian, and skin”.

For `COc1ccc(-c2nc3ccc(C)cc3[nH]2)cc1C12CC3CC(CC(C3)C1)C2` [Compound 10, 2-[3-(1-adamantyl)-4-methoxyphenyl]-5-methylbenzimidazole], the “Types” value is “leukemia, lymphoma, myeloma”. Take `O=C(O)c1ccc2cc(-c3ccc(C(O)CO)c(C45CC6CC(CC(C6)C4)C5)c3)ccc2c1` (stereo not shown) [Compound 11, 6-[3-(1-adamantyl)-4-(1,2-dihydroxyethyl)phenyl]-2-naphthoic acid]: the “Types” value is given as “brain, breast, leukemia,; also recorded: pancreatic, skin”. With `Cc1cc(O)c(C23CC4CC(CC(C4)C2)C3)cc1-c1ccc2cc(C(=O)O)ccc2c1` [Compound 12, 6-[3-(1-adamantyl)-4-hydroxy-6-methylphenyl]-2-naphthoic acid] the entry was “head and neck, leukemia,; also recorded: pancreatic”; with `COc1cc(C)c(-c2ccc3cc(C(=O)O)ccc3c2)cc1C12CC3CC(CC(C3)C1)C2` [Compound 13, 6-[3-(1-adamantyl)-4-methoxy-6-methylphenyl]-2-naphthoic acid], “brain, head and neck, leukemia,; also recorded: pancreatic”; with `OCc1ccc2cc(-c3ccc(O)c(C45CC6CC(CC(C6)C4)C5)c3)ccc2c1` [Compound 14, 6-[3-(1-adamantyl)-4-hydroxyphenyl]-2-hydroxymethylnaphthalene], “bladder, kidney, skin”. In the case of `COc1ccc(COc2ccc(C(=O)O)cc2)cc1C12CC3CC(CC(C3)C1)C2` [Compound 15, 4-[3-(1-adamantyl)-4-methoxybenzyloxy]benzoic acid], the “Types” value is “breast, leukemia, prostate”. As to `COc1ccc(-c2cc3cc(C(=O)O)ccc3o2)cc1C12CC3CC(CC(C3)C1)C2` [Compound 16, 2-[3-(1-adamantyl)-4-methoxyphenyl]-5-benzofurancarboxylic acid], the “Types” value was “brain, breast, prostate”. As to `COC(=O)c1ccc2cc(-c3ccc(O)c(C45CC6CC(CC(C6)C4)C5)c3)ccc2c1` [Compound 17, 6-[3-(1-adamantyl)-4-hydroxyphenyl]-2-naphthoic acid methyl ester], the “Types” value is listed as “leukemia”. As for `COC(=O)c1cc(O)c2cc(-c3ccc(OC)c(C45CC6CC(CC(C6)C4)C5)c3)ccc2c1C` [Compound 18, 1-methyl-4-hydroxy-6-[3-(1-adamantyl)-4-methoxyphenyl]-2-naphthoic acid methyl ester], the “Types” value was “lymphoma, liver”. Regarding `COc1ccc(C(=O)Nc2ccc(C(=O)N3CCOCC3)cc2)cc1C12CC3CC(CC(C3)C1)C2` [Compound 19, N-{4-[N-(3-(1-adamantyl)-4-methoxybenzoyl)amido]benzoyl}morpholide], the “Types” value is “kidney, myeloma, prostate, skin”.

Turning to `COc1ccc(C(=O)Oc2ccc(C(=O)O)c(F)c2)cc1C12CC3CC(CC(C3)C1)C2` [Compound 20, 4-[3-(1-adamantyl)-4-methoxybenzoyloxy]-2-fluorobenzoic acid], the “Types” value is recorded as “lymphoma, skin”.

For the compound `COc1ccc(C(=O)Oc2ccc(C(=O)O)cc2F)cc1C12CC3CC(CC(C3)C1)C2` [Compound 21, 4-hydroxycarbonyl-2-fluorophenyl ester of 3-(1-adamantyl)-4-methoxybenzoic acid], the “Types” value is given as “leukemia”.

In the case of `CCc1ccc(-c2ccc3cc(C(=O)O)ccc3c2)cc1C12CC3CC(CC(C3)C1)C2` [Compound 22, 6-[3-(1-adamantyl)-4-ethylphenyl]-2-naphthoic acid], the “Types” value was “breast, leukemia, myeloma”. For the compound `O=C(O)c1ccc2cc(-c3ccc(OCCCO)c(C45CC6CC(CC(C6)C4)C5)c3)ccc2c1` [Compound 23, 6-[3-(1-adamantyl)-4-(3-hydroxypropoxy)phenyl]-2-naphthoic acid], the “Types” value is on record as “breast, leukemia, lymphoma”. On to `NC(=O)c1ccc(-c2ccc3cc(C(=O)O)ccc3c2)cc1C12CC3CC(CC(C3)C1)C2` [Compound 24, 6-[3-(1-adamantyl)-4-aminocarbonylphenyl]-2-naphthoic acid], for which the “Types” value is reported as “leukemia, lymphoma”. Under `O=C(CC(=O)C12CC3CC(CC(C3)C1)C2)Nc1ccc(C(=O)O)cc1` [Compound 25, N-(4-carboxyphenyl)-3-(1-adamantyl)-3-oxopropionamide] stands “lymphoma”; under `COc1ccc(C(O)COc2ccc(C(=O)O)c(O)c2)cc1C12CC3CC(CC(C3)C1)C2` (stereo not shown) [Compound 26, 2-hydroxy-4-{2-[3-(1-adamantyl)-4-methoxyphenyl]-2-hydroxyethoxy}benzoic acid], “lymphoma”; under `O=C(O)c1ccc2cc(-c3ccc(OC[C@@H](O)CO)c(C45CC6CC(CC(C6)C4)C5)c3)ccc2c1` [Compound 27, (S)-6-[3-(1-adamantyl)-4-(2S,3-dihydroxypropoxy)phenyl]-2-naphthoic acid], “leukemia”.

With `COc1cc(C(=O)/C=C/c2ccc(C(=O)O)cc2)ccc1C12CC3CC(CC(C3)C1)C2` [Compound 28, (E) 4-{3-oxo-3-[3-methoxy-4-(1-adamantyl)phenyl]prop-1-enyl}benzoic acid], the “Types” value is “leukemia”. Under `COCCOCOc1ccc(C(=O)/C=C/c2ccc(C(=O)O)cc2)cc1C12CC3CC(CC(C3)C1)C2` [Compound 29, (E) 4-{3-oxo-3-[4-(2-methoxyethoxymethoxy)-3-(1-adamantyl)phenyl]prop-1-enyl}benzoic acid] stands “brain, leukemia, lung,; also recorded: lymphoma, prostate”. `NC(=O)CCCCCOc1ccc(/C=C/c2ccc(C(=O)O)cc2)cc1C12CC3CC(CC(C3)C1)C2` [Compound 30, (E) 4-{2-[4-(6-aminocarbonylpentyloxy)-3-(1-adamantyl)phenyl]ethenyl}benzoic acid]: the “Types” value is given as “lymphoma, myeloma”. `COc1ccc(C(=N)Nc2ccc(C(=O)O)cc2)cc1C12CC3CC(CC(C3)C1)C2` [Compound 31, 3-(1-adamantyl)-4-methoxy-N-(4-carboxyphenyl)benzamidine]: the “Types” value is “leukemia”. Turning to `CCC1OC(=O)C(C)C(OC2CC(C)(OC)C(OC(=O)c3ccc4cc(-c5ccc(OC)c(C67CC8CC(CC(C8)C6)C7)c5)ccc4c3)C(C)O2)C(C)C(OC2OC(C)CC(N(C)C)C2O)C(C)(O)CC(C)C(=O)C(C)C(O)C1(C)O` (stereo not shown) [Compound 32, 4″-Erythromycin A ester of 6-[3-(1-adamantyl)-4-methoxyphenyl]2-naphthoic acid], the “Types” value is on record as “leukemia, lymphoma”. With `O=C(O)c1ccc(OC(=O)c2ccc(OCC(O)CO)c(C34CC5CC(CC(C5)C3)C4)c2)cc1` (stereo not shown) [Compound 33, 4-carboxyphenyl ester of 3-(1-adamantyl)-4-(2,3-dihydroxyproproxy)benzoic acid] the entry was “leukemia, skin”; with `O=C(O)c1ccc2cc(-c3ccc(OCC(O)CO)c(C45CC6CC(CC(C6)C4)C5)c3)ccc2c1` (stereo not shown) [Compound 34, 6-[3-(1-adamantyl)-4-(2,3-dihydroxypropoxy)phenyl]-2-naphthoic acid], “leukemia, skin”. Regarding `COC(=O)c1ccc(C(=O)Nc2ccc(C(=O)O)cc2)cc1C12CC3CC(CC(C3)C1)C2` [Compound 35, N-4-carboxyphenyl 3-(1-adamantyl)-4-(methoxycarbonyl)benzamide], the “Types” value was “leukemia, lymphoma, myeloma”. Under `O=C(O)c1ccc2cc(-c3cc(O)c(O)c(C45CC6CC(CC(C6)C4)C5)c3)ccc2c1` [Compound 36, 6-[3-(1-adamantyl)-4,5-dihydroxyphenyl]-2-naphthoic acid] stands “brain, head and neck, leukemia,; also recorded: lymphoma, myeloma, pancreatic”; under `CC12CC3CC(C1)CC(c1cc(-c4ccc5cc(C(=O)O)ccc5c4)cc4c1OCO4)(C3)C2` [Compound 37, 6-[3-(3-methyl-1-adamantyl)-4,5-methylenedioxyphenyl]-2-naphthoic acid], “kidney, leukemia, lung,; also recorded: lymphoma, skin”; under `O=C(O)c1ccc2cc(-c3cc4c(c(C56CC7CC(CC(C7)O5)C6)c3)OCO4)ccc2c1` [Compound 38, 6-[3-(2-oxa-1-adamantyl)-4,5-methylenedioxyphenyl]-2-naphthoic acid], “leukemia, skin”. As for `COc1ccc(-c2ccc3cc(C(=O)O)ccc3c2)cc1C12CC3CC(CC(C3)O1)C2` [Compound 39, 6-[3-(2-oxa-1-adamantyl)-4-methoxyphenyl]-2-naphthoic acid], the “Types” value was “kidney, lymphoma, skin, liver”.
